Data set [1] can be described thus: Particle size distribution (PSD) by LALLS. The class given is physicochemical. Conditions: for Dx (10)/μm: 10th percentile of particle size, paraffin oil dispersion; for Dx (50)/μm: 50th percentile of particle size; for Dx (90)/μm: 90th percentile of particle size; for >100 μm (%): percentage of particles greater than 100 μm; for <2 μm (%): percentage of particles less than 2 μm. The source says:
As used herein, the term “Dx(10)/μm” refers to the 10th percentile of particle size (D10) measured in micrometers (μm). As used herein, the terms “Dx(50)/μm” or “median particle size” refer to the 50th percentile particle size (D50). As used herein, the term “Dx(90)/μm” refers to the 90th percentile of particle size (D90).
As used herein, the term “<2 μm (%)” refers to the percentage (%) of particles that are less than 2 μm. As used herein, the term “>100 μm (%)” refers to the percentage (%) of particles that are greater than 100 μm. As used herein, the percentage of particles refers to the percentage based on the population, or number, of particles.
The sample dispersion medium was paraffin oil. […] This was repeated until a stable reading was obtained.
The PSD measurements were done using the following settings: background measurement time, 20 seconds(s); sample measurement time, 20 s; dispersant refractive index, 1.45; particle refractive index, N/A (Fraunhofer), absorption, N/A (Fraunhofer); stirrer speed, 2500 rpm; analysis model: general purpose.

The nature of data set [2]: Specific surface area (SSA) by BET. The class given is physicochemical. The conditions noted are these: N2 adsorption. How it is done:
As used herein, the ten “SSA (m^2/g)” refers to specific surface area (SSA) measured in square meters (m^2) per gram (g). SSA was measured by BET according to the method described in Example 4.
Specific Surface Area (SSA) was analyzed by BET on a surface area analyzer (Gemini 2375™ from Micromeritics Instrument Corp.). […] Each sample was filled into a glass tube and “degassed” at 30° C. for 1 h under continuous N2 (g) flow in order to remove all loosely bound molecules on the external surface and from potential channels in the material. Simultaneously, the saturation pressure for the liquid nitrogen used was determined. After weighing the degassed samples, the degassed samples were inserted into the measuring position at −196° C. (boiling point for liquid nitrogen), evacuated and then exposed to a range of partial pressures basically covering the whole range from almost zero to close to 1 under adsorption mode. The lower pressures were used for SSA determination. Higher pressures were used for potential micro pore determination. In order to ascribe the right amount of nitrogen to the substances, the free volume in the tubes was measured with helium gas prior to nitrogen adsorption. The appropriate thickness values for the adsorbed layer (above the point where no absorption took place in micro pores anymore) was determined from a t-plot and subsequently used to correct the calculation by separating the adsorbed nitrogen molecules into either absorbed into potential pore like structures (the “micro pore volume”) or adsorbed onto actual external surface.

For data set [3] the following is noted: 5 g lab-scale Process C crystallization; for D10 (μm) / D50 (μm) / D90 (μm): ethanol charge time and temperature vary per example; for >100 (%): particles greater than 100 μm; for <2 (%): particles less than 2 μm; for D90/D50: ratio of D90 to D50. How it is done:
Particle size distribution (PSD) was analyzed by LALLS on a commercial laser particle size analyzer (Malvern Instruments Ltd. Mastersizer 3000™) instrument, equipped with a 300 mm reverse Fourier lens with a small volume automated liquid sample dispersion unit (Malvern, Hydro MV™). The sample dispersion medium was paraffin oil. Samples taken from each of the batches were analyzed sequentially. Each sample was introduced directly into the small volume sample dispersion unit to study the disaggregation under influence of stirring only. Thereafter sonication was applied at low power (20%) in 60 seconds. This was repeated until a stable reading was obtained.
(§1) Each mixture was then transferred to a 250 mL lab reactor via a series of 0.45 and 0.22 μm HPLC filters for polish filtration, and 2×1 mL water was used for rinsing (total amount water added: 19 mL, which gives an ethanol amount of 76 mL for an ethanol/water end-ratio of 80/20). After heating of the mixture to correct jacket temperature (35° C., 45° C., 50° C. or 55° C.), ethanol (76 mL) was charged for 1, 2.5 or 4 hours. A syringe pump connected to a 50-mL plastic syringe was used for the charging. Linear cooling profiles were then applied and all examples were cooled at a rate of 0.333° C./min down to 15° C. All mixtures were stirred for an additional 10 minutes at 15° C. before isolation of the solid on a P3 glass filter funnel. In example 8, the same conditions as described above were used, but the speed of the stirrer of the lab reactor was doubled. In example 10, the same conditions as described above were used, but a type different stirrer was used that increased the mass transfer in the lab reactor.

The conditions of data set [4]: isolated solid after 5 g lab-scale Process C crystallization. How it is done: Purity was analyzed by reverse-phase high-performance liquid chromatography (HLPC) using Agilent® 1100 series HPLC system and a reversed-phase column (Aquasil C18, 4.6×250 mm, 5 μm) at 25°, with the absorbance detector set to 242 or 301 nm. […] The amount of BC-TTM and impurities in the sample solution was determined by the regression line and the area of the standard peaks in the sample chromatogram.
as §1

Consider “bis-choline tetrathiomolybdate [Batch C-3]”, for which, in data set [1] (listed as C-3), the “Dx (10)/μm” value came out at 25.7 μm, the “Dx (50)/μm” value was determined as 52.9 μm, the “Dx (90)/μm” value came to 97.7 μm and the “>100 μm (%)” value was 9.2%. The “<2 μm (%)” value in data set [1] (listed as C-3) was 1.0%. Also, the “SSA (m^2/g)” value in data set [2] (listed as C-3) is on record as 0.12 m^2/g.
“bis-choline tetrathiomolybdate [compound 2]”: in data set [3], the “D10 (μm)” value came to 25 μm, the “D50 (μm)” value is reported as 46 μm, the “D90 (μm)” value was determined as 79 μm and the “>100 (%)” value worked out at 1.9%. Moreover, in data set [3], the “<2 (%)” value is on record as 1.4% and the D90/D50 stood at 1.7. In data set [4], the “TM2 (% w/w)” value is reported as 0.13 % w/w, the “TM3 (% w/w)” value is 0.45 % w/w and the “Total impurities (% w/w)” value is recorded as 0.57 % w/w.
As for “bis-choline tetrathiomolybdate [compound 7]”, in data set [3], the “D10 (μm)” value turned out to be 41 μm, the “D50 (μm)” value is reported as 85 μm, the “D90 (μm)” value is on record as 143 μm and the “>100 (%)” value is reported as 36%. Moreover, in data set [3], the “<2 (%)” value worked out at 0.0% and the D90/D50 turned out to be 1.7. Also, in data set [4], the “TM2 (% w/w)” value is listed as <0.05 % w/w, the “TM3 (% w/w)” value is listed as 0.18 % w/w and the “Total impurities (% w/w)” value amounted to 0.18 % w/w.
“bis-choline tetrathiomolybdate [compound 1]”: in data set [3], the “D10 (μm)” value is recorded as 21 μm, the “D50 (μm)” value amounted to 45 μm, the “D90 (μm)” value is reported as 77 μm and the “>100 (%)” value came to 1.4%. For the same substance, in data set [3], the “<2 (%)” value was 1.3% and the D90/D50 was determined as 1.7. For the same substance, in data set [4], the “TM2 (% w/w)” value was <0.05 % w/w, the “TM3 (% w/w)” value stood at 0.18 % w/w and the “Total impurities (% w/w)” value is given as 0.18 % w/w.
Regarding “bis-choline tetrathiomolybdate [compound 5]”, in data set [3], the “D10 (μm)” value is 38 μm, the “D50 (μm)” value worked out at 80 μm, the “D90 (μm)” value came to 136 μm and the “>100 (%)” value is given as 31%. Further, in data set [3], the “<2 (%)” value was 0.0% and the D90/D50 turned out to be 1.7. In data set [4], the “TM2 (% w/w)” value is listed as <0.05 % w/w, the “TM3 (% w/w)” value came to 0.18 % w/w and the “Total impurities (% w/w)” value is reported as 0.18 % w/w.
In the case of “bis-choline tetrathiomolybdate [compound 10]”, in data set [3], the “D10 (μm)” value is reported as 50 μm, the “D50 (μm)” value worked out at 95 μm, the “D90 (μm)” value is 161 μm and the “>100 (%)” value worked out at 45%. Also, in data set [3], the “<2 (%)” value stood at 0.0% and the D90/D50 amounted to 1.7. Also, in data set [4], the “TM2 (% w/w)” value is <0.05% w/w, the “TM3 (% w/w)” value stood at 0.16 % w/w and the “Total impurities (% w/w)” value was 0.16 % w/w.
On to “bis-choline tetrathiomolybdate [compound 9]”, for which, in data set [3], the “D10 (μm)” value turned out to be 33 μm, the “D50 (μm)” value is listed as 61 μm, the “D90 (μm)” value is given as 101 μm and the “>100 (%)” value is recorded as 11%. In data set [3], the “<2 (%)” value was determined as 1.0% and the D90/D50 is on record as 1.7. In data set [4], the “TM2 (% w/w)” value is 0.12 % w/w, the “TM3 (% w/w)” value was determined as 0.25 % w/w and the “Total impurities (% w/w)” value is listed as 0.37 % w/w.
For “bis-choline tetrathiomolybdate [compound 6]”, in data set [3], the “D10 (μm)” value came to 42 μm, the “D50 (μm)” value is reported as 87 μm, the “D90 (μm)” value is 148 μm and the “>100 (%)” value came to 38%. Also, in data set [3], the “<2 (%)” value came out at 0.0% and the D90/D50 stood at 1.7. Also, in data set [4], the “TM2 (% w/w)” value was <0.05 % w/w, the “TM3 (% w/w)” value is given as 0.19 % w/w and the “Total impurities (% w/w)” value is 0.19 % w/w.
In the case of “bis-choline tetrathiomolybdate [Batch A-1]”, in data set [1] (listed as A-1), the “Dx (10)/μm” value worked out at 10.3 μm, the “Dx (50)/μm” value is reported as 59.4 μm, the “Dx (90)/μm” value is on record as 503 μm and the “>100 μm (%)” value amounted to 42.1%. Further, the “<2 μm (%)” value in data set [1] (listed as A-1) was 2%. The “SSA (m^2/g)” value in data set [2] (listed as A-1) was 0.52 m^2/g.
With “bis-choline tetrathiomolybdate [compound 3]”, in data set [3], the “D10 (μm)” value is given as 37 μm, the “D50 (μm)” value is on record as 79 μm, the “D90 (μm)” value amounted to 135 μm and the “>100 (%)” value turned out to be 30%. Besides, in data set [3], the “<2 (%)” value is 0.4% and the D90/D50 turned out to be 1.7. Also, in data set [4], the “TM2 (% w/w)” value is reported as <0.05 % w/w, the “TM3 (% w/w)” value stood at 0.14 % w/w and the “Total impurities (% w/w)” value came to 0.14 % w/w.
In the case of “bis-choline tetrathiomolybdate [compound 8]”, in data set [3], the “D10 (μm)” value was 57 μm, the “D50 (μm)” value amounted to 102 μm, the “D90 (μm)” value turned out to be 164 μm and the “>100 (%)” value came out at 52%. In addition, in data set [3], the “<2 (%)” value is 0.0% and the D90/D50 is reported as 1.6. Besides, in data set [4], the “TM2 (% w/w)” value was <0.05 % w/w, the “TM3 (% w/w)” value came to 0.18 % w/w and the “Total impurities (% w/w)” value was 0.18 % w/w.
Turning to “bis-choline tetrathiomolybdate [compound 4]”, in data set [3], the “D10 (μm)” value is 33 μm, the “D50 (μm)” value is given as 56 μm, the “D90 (μm)” value is given as 92 μm and the “>100 (%)” value worked out at 5.8%. In addition, in data set [3], the “<2 (%)” value is recorded as 0.8% and the D90/D50 worked out at 1.6. In addition, in data set [4], the “TM2 (% w/w)” value was 0.19 % w/w, the “TM3 (% w/w)” value turned out to be 0.46 % w/w and the “Total impurities (% w/w)” value was 0.70 % w/w.

Values taken from patent US11739051B2 (ALEXION PHARMA INTERNATIONAL OPERATIONS UNLIMITED COMPANY, priority 2018, dated 2023).
